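96-well plates; 48 h exposure; 5 concentrations. Endpoints by linear interpolation between flanking doses. Not reached: highest tested concentration assigned. Abbreviation: GI50, concentration required for 50% inhibition of growth. TGI: total growth inhibition.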 A value given as a limit tells only on which side of the number the result lay.

Common to all, as to experiment: NCI tumour cell line growth inhibition, 48 h
Assay [1] deals with DU-145 prostate.
Assay [2] deals with SF-295 CNS.
Assay [3] concerns 786-0 renal.
The subject of assay [4] is PC-3 prostate.
For assay [5], the system named is RXF 393 renal.
Assay [6] concerns SF-268 CNS.
For assay [7], the system named is NCI-H460 lung.
Assay [8] relates to SR leukemia.
The subject of assay [9] is LOX IMVI melanoma.
Assay [10] deals with SNB-19 CNS.

In the case of `CC(=O)[O][Hg][c]1c(C)c(C)c(C)c(C)c1C`, the GI50 was 8.79 µM in [1]; 1.71 µM in [2]; 1.65 µM in [3]; 2 µM in assay [4]; 0.712 µM in assay [5]; 0.549 µM in assay [6]. The GI50 in assay [7] was 0.747 µM; in assay [8], 0.127 µM; in assay [9] it was 1.29 µM; in assay [10], 1.48 µM. For the same compound, the TGI in [1] was determined as 22.8 µM; in assay [2], 3.76 µM; in assay [3], 3.03 µM; in assay [4], 5.68 µM; in [5], 1.93 µM; in assay [6], 2.11 µM. Moreover, the TGI turned out to be 2.26 µM in [7], 2.82 µM in assay [9] and 2.89 µM in [10].

With `CNC1C(=O)C(C)C(O)(C(CC(C)C(O)/C=C/C=C/CNC(=O)C(C)(C)C(O)\C(C)=C/C=C\C=C\Cc2cnc(C)o2)OC)C12C(=O)OC2COC` (centres undefined) (tested in a mixture with another compound), the TGI in assay [1] was > 100 µM; in assay [2] it was > 53.3 µM; in assay [3] it was 73.7 µM; in [4] it was 63.5 µM; in [5] it was 92.3 µM; in assay [6], 42.9 µM. Besides, the TGI in [7] was > 100 µM; in [8], 48.1 µM; in assay [9], 31.5 µM; in assay [10] it was > 85.9 µM.

Consider `O=c1[nH]c(=O)n(C2CC(O)C(CS)O2)cc1F` (centres undefined), for which the TGI in assay [1], in assay [2], in [3], in assay [4], in assay [5] and in [6] was > 100 µM in each case. Also, the TGI in assay [7], in assay [8], in assay [9] and in assay [10] was > 100 µM each time.

On to `C=C1C(=O)O[C@H]2[C@H]1CC/C(COC(=O)/C=C\C(=O)NCc1ccc(Cn3c(=O)sn(-c4ccc(C#N)cc4)c3=O)cc1)=C\CC[C@@]1(C)O[C@@H]21`, for which the GI50 was 0.725 µM in assay [1]; 3.54 µM in assay [2]; 0.727 µM in assay [3]; 0.611 µM in assay [4]; 0.576 µM in assay [5]; 0.724 µM in [6]. The GI50 in assay [7] was 0.844 µM; in [8], 0.292 µM; in [9], 0.437 µM; in assay [10] it was 0.969 µM. Also, the TGI in assay [1] came to 1.4 µM; in [2], 9.7 µM; in assay [3] it was 1.52 µM; in assay [4], 1.44 µM; in [5] it was 1.22 µM; in assay [6], 1.41 µM. The TGI in [7] was 1.83 µM; in assay [8] it was 50 µM; in assay [9], 1.16 µM; in assay [10] it was 2.27 µM.

As for `Cn1cc(C2=C(c3cn(CCCN=C(N)N)c4ccccc34)C(=O)NC2=O)c2ccccc21`, the GI50 in assay [1] is > 25 µM; in assay [2], > 25 µM; in assay [3], > 25 µM; in assay [4], > 23.1 µM; in assay [5], > 20 µM; in assay [6], > 25 µM. Further, the GI50 was > 25 µM in assay [7], 7.22 µM in assay [8], > 25 µM in [9] and > 25 µM in [10]. Also, the TGI in assay [1], in assay [2], in assay [3], in assay [4], in assay [5] and in assay [6] was > 25 µM each time. Also, the TGI in [7], in [8], in assay [9] and in assay [10] was > 25 µM each time.

With `COc1ccc(-n2cc(-c3cc(OC)c(OC)c(OC)c3)[nH]c2=S)cc1OC`, the GI50 in assay [1], in assay [2], in [3], in assay [4], in assay [5] and in assay [6] was > 100 µM each time. Also, the GI50 in assay [7] is > 100 µM; in assay [8], 2.57 µM; in assay [9], > 100 µM; in assay [10], > 100 µM. In addition, the TGI in [1], in assay [2], in [3], in [4], in assay [5] and in assay [6] was > 100 µM in each case. Besides, the TGI in [7] is > 100 µM; in assay [8] it was 8.76 µM; in assay [9], > 100 µM; in assay [10], > 100 µM.

Turning to `CCC1(O)C(=O)OCc2c1cc1n(c2=O)Cc2cc3c(N)cccc3nc2-1` (centres undefined), the TGI was 0.25 µM in assay [1]; 2.01 µM in assay [2]; 0.0893 µM in assay [3]; > 100 µM in assay [4]; 0.348 µM in assay [5]; 0.579 µM in assay [6]. The TGI in assay [7] is 1.13 µM; in assay [8], < 0.0114 µM; in [9], 0.23 µM; in [10], 26.1 µM.

Take `COc1ccc(C2CC(=O)c3c(OC)cc(OC)cc3O2)cc1` (centres undefined): the GI50 in [1], in assay [2], in [3], in assay [4], in [5] and in assay [6] was > 100 µM throughout. For the same compound, the GI50 in assay [7], in assay [8], in assay [9] and in [10] was > 100 µM throughout. The TGI in [1], in assay [2], in [3], in [4], in [5] and in assay [6] was > 100 µM throughout. The TGI in [7], in [8], in assay [9] and in assay [10] was > 100 µM throughout.

Take `O=C(O)C1C(C(=O)O)C(C(=O)O)C1C(=O)O` (centres undefined): the TGI in assay [1], in [2], in [3], in [4], in assay [5] and in [6] was > 100 µM throughout. Moreover, the TGI in assay [7], in assay [8], in [9] and in assay [10] was > 100 µM each time.

In the case of `Cn1cc(C2=C(c3cn(C)c4c(N)cccc34)C(=O)NC2=O)c2ccccc21`, the GI50 in assay [1] is 2.48 µM; in assay [2] it was 0.898 µM; in assay [3], 2 µM; in [4], 1.37 µM; in assay [5], 1.03 µM; in [6] it was 2.86 µM. The GI50 in assay [7] is 1.08 µM; in assay [8], 0.407 µM; in assay [9] it was 1.94 µM; in assay [10] it was 4.34 µM. The TGI in [1] was > 25 µM; in assay [2] it was > 11.6 µM; in assay [3], > 25 µM; in assay [4], > 25 µM; in assay [5], 6.85 µM; in assay [6], > 25 µM. The TGI in assay [7], in assay [8], in assay [9] and in assay [10] was > 25 µM each time.

`C[C@]12CC[C@@H]3c4ccc(O)cc4C[C@@H](CCCCCCCCCS(=O)CCCC(F)(F)C(F)(F)F)[C@H]3[C@@H]1CC[C@@H]2O` (some centres undefined): the GI50 is > 100 µM in assay [1]; > 100 µM in [2]; > 100 µM in assay [3]; > 100 µM in [4]; > 78.1 µM in assay [5]; > 100 µM in [6]. Also, the GI50 in assay [7], in assay [8], in assay [9] and in assay [10] was > 100 µM each time. Also, the TGI in [1], in assay [2], in assay [3], in [4], in [5] and in [6] was > 100 µM in each case. Moreover, the TGI in assay [7], in assay [8], in [9] and in assay [10] was > 100 µM in each case.

For `COc1cccc(NCc2nnc(Nc3ccc(Cl)cc3)c3ccccc23)c1`, the GI50 in assay [1] is 2.4 µM; in assay [2] it was 1.94 µM; in [3], 2.22 µM; in [4], 1.19 µM; in assay [5], 2.16 µM; in assay [6], 2.05 µM. Further, the GI50 was 2.69 µM in [7], 0.979 µM in [8], 1.11 µM in assay [9] and 3.5 µM in assay [10]. For the same compound, the TGI in [1] is 6.52 µM; in [2] it was 8.25 µM; in [3], 7.62 µM; in assay [4], 9.33 µM; in assay [5] it was 6.11 µM; in assay [6], 10.5 µM. The TGI in assay [7] was 7.14 µM; in assay [8], 8.85 µM; in assay [9], 4.84 µM; in assay [10], 13 µM.
